pIC50: −log10 of the molar value.
Assays:
[1] = in vivo pharmacokinetic study in SD rats; conditions: male, rat, plasma; for bioavailability: 1 mg/kg PO vs 1 mg/kg IV, read-out: Oral bioavailability F (%)
Experimental: 2.2.1 Rats: SD rats, SPF grade, 6 rats per compound, male, body weight range 180-200 g.
2.2.2 Housing conditions: The animals were housed in an SPF-grade animal facility with free access to food and water, three per cage, under a 12/12-hour light/dark cycle (7:00 am/7:00 pm), at a temperature of 23 ± 3°C.
2.2.3 Drug preparation: The compound was precisely weighed, mixed with the required volume of 1% Tween 80, vortexed for 2 min, and then sonicated for 5 min until no visible particles remained. The mixture was subsequently stirred on a magnetic stirrer for 20 min, and the middle layer of the drug solution was collected for administration. For the IV group, the compound was accurately weighed, dissolved in the required volume of 50% PEG400, sonicated for 10 min, and vortexed until clear before administration.
The rats were randomly divided into 2 groups based on body weight, with 3 rats per compound per group. Group 1 was administered a single oral gavage dose (fasted), and Group 2 was administered a single tail vein bolus injection. Blood collection time points: for the po group, blood was collected at 0.167 h, 0.5 h, 1 h, 2 h, 3 h, 4 h, 6 h, and 8 h; for the iv group, blood was collected at 0.033 h, 0.167 h, 0.5 h, 1 h, 2 h, 4 h, 6 h, and 8 h.
After administration to the rats, blood was collected from the orbital venous plexus according to the sampling time points. Approximately 0.2-0.3 mL of blood was collected at each time point into anticoagulant EP tubes (containing 4 µL of EDTA-K2, 375 mg/mL, dried at 50°C). The tubes were slowly inverted up and down three times and stored in an ice box (for no more than 30 minutes). Centrifugation was performed at 4°C at 3000 × g for 10 minutes, and the supernatant was transferred to labeled EP tubes for bioanalytical testing. If testing could not be performed on the same day, the samples were stored at -80°C until analysis (care was taken to avoid multiple freeze/thaw cycles).
The data were analyzed using WinNonlin via a non-compartmental model to obtain PK parameters (Cmax, AUC0-last, AUCinf, T1/2, etc., selected based on different routes of administration). For specific data, please refer to Table 2. Table 2. PK experimental results of compounds in SD rats

human CCR6 = biological target: T1, human CCR6 (Homo sapiens, UniProt P51684); assay: human CCR6 calcium flux activity (FLIPR, HEK293 cells stably expressing human CCR6, CCL20 stimulation); type: cell-based; conditions: HEK293 cells stably expressing human CCR6, EC80 human MIP-3 alpha/CCL20; read-out: CCR6 inhibitory activity, IC50
T1 construct: expressed in transfected cells; host or cells: HEK293
T1 sequence (P51684 1-374): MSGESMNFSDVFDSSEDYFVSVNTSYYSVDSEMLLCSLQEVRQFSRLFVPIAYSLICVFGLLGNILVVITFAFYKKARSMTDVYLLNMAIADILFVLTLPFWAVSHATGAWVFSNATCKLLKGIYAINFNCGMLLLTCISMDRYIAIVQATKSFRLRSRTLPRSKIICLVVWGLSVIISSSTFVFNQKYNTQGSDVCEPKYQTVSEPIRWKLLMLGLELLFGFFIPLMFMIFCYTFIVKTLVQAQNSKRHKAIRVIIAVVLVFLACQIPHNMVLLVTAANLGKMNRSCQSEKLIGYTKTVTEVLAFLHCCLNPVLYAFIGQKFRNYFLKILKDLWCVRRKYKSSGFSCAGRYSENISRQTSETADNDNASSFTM
Experimental: The activity of the compounds was evaluated using HEK293 cells stably expressing human CCR6 via the FLIPR platform. A 384-well black cell culture plate (Greiner, 781946) was used, with a seeding density of 20,000 cells/well, and incubated overnight at 37°C in a 5% CO2 incubator. The culture medium in the cell plate wells was removed, and 20 µL of Fluo-4 Direct™ Calcium Assay Buffer (Invitrogen, F10471, Component C), 20 µL of 2× Fluo-4 Direct™ Calcium Assay Reagent (Invitrogen, F10471, Component A) working solution, and 10 µL of 6× test compound working solution were sequentially added to each well. The cell plate was incubated in a 37 °C, 5% CO2 incubator for 50 min, followed by a 10 min incubation at room temperature. Additionally, a 6×EC80 human MIP-3 alpha/CCL20 (MCE, HY-P7262) working solution was prepared. After the incubation was completed, 10 µL/well of the 6×EC80 human MIP-3 alpha/CCL20 working solution was transferred to the cell plate using a FLIPR instrument, and the fluorescence signal changes at an excitation wavelength of 494 nm and an emission wavelength of 516 nm were recorded over 90 seconds. The difference between the maximum fluorescence signal (RFUMax) and the minimum fluorescence signal (RFUMin) was used as the output signal. The compound inhibition rate and the log value of the compound concentration were calculated, and a four-parameter fitting analysis was performed using GraphPad Prism 8 software to obtain the IC50 value of the test compound.

Row | pIC50 (human CCR6) | further results | Compound
1 | 7.75 | bioavailability [1]: 39.8%; AUC(0-t) ([1]; 1 mg/kg, IV): 683 ng·h/mL; Cmax ([1]; 1 mg/kg, IV): 2280 ng/mL; AUC(0-t) ([1]; 1 mg/kg, PO): 272 ng·h/mL; Cmax ([1]; 1 mg/kg, PO): 158 ng/mL | Cc1cccnc1[C@H](Nc1c(Nc2ccnc(C(=O)N(C)C)c2O)c(=O)c1=O)C12CC(C1)C2 [compound 077, (R)-4-((2-((bicyclo[1.1.1]pentan-1-yl(3-methylpyridin-2-yl)methyl)amino)-3,4-dioxocyclobut-1-en-1-yl)amino)-3-hydroxy-N,N-dimethylpicolinamide]
2 | 7.76 | bioavailability [1]: 42.5%; AUC(0-t) ([1]; 1 mg/kg, IV): 1180 ng·h/mL; Cmax ([1]; 1 mg/kg, IV): 3670 ng/mL; AUC(0-t) ([1]; 1 mg/kg, PO): 499 ng·h/mL; Cmax ([1]; 1 mg/kg, PO): 566 ng/mL; half-life ([1]; 1 mg/kg, PO): 2.01 h | Cc1cccnc1[C@H](Nc1c(Nc2ccnc(C(=O)N(C)C)c2O)c(=O)c1=O)C1(C)CC(F)(F)C1 [compound 079, (R)-4-((2-(((3,3-difluoro-1-methylcyclobutyl)(3-methylpyridin-2-yl)methyl)amino)-3,4-dioxocyclobut-1-en-1-yl)amino)-3-hydroxy-N,N-dimethylpicolinamide]
3 | 7.06 | – | Cc1ccc(F)nc1C(Nc1c(Nc2ccnc(C(=O)N(C)C)c2O)c(=O)c1=O)C1(C)CC2CC2C1 (centres unmarked) [compound 121, 4-((2-(((6-fluoro-3-methylpyridin-2-yl)(3-methylbicyclo[3.1.0]hexan-3-yl)methyl)amino)-3,4-dioxocyclobut-1-en-1-yl)amino)-3-hydroxy-N,N-dimethylpicolinamide]
4 | 8.05 | – | CN(C)C(=O)c1nccc(Nc2c(N[C@@H](c3cc(Cl)ccn3)C3(C)CCCC3)c(=O)c2=O)c1O [compound 012, (R)-4-((2-(((4-chloropyridin-2-yl)(1-methylcyclopentyl)methyl)amino)-3,4-dioxocyclobut-1-en-1-yl)amino)-3-hydroxy-N,N-dimethylpicolinamide]
5 | 6.82 | – | CN(C)C(=O)c1nccc(Nc2c(N[C@@H](c3cccc(C(F)(F)F)n3)C3(C)CCCC3)c(=O)c2=O)c1O [compound 008, (R)-3-hydroxy-N,N-dimethyl-4-((2-(((1-methylcyclopentyl)(6-(trifluoromethyl)pyridin-2-yl)methyl)amino)-3,4-dioxocyclobut-1-en-1-yl)amino)picolinamide]
6 | 9.15 | – | CC(C)N(C)C(=O)c1nccc(Nc2c(N[C@@H](c3ncccc3F)C3(C)CCCC3)c(=O)c2=O)c1O [compound 026, (R)-4-((2-(((3-fluoropyridin-2-yl)(1-methylcyclopentyl)methyl)amino)-3,4-dioxocyclobut-1-en-1-yl)amino)-3-hydroxy-N-isopropyl-N-methylpicolinamide]
7 | 7.32 | – | CN(C)C(=O)c1nccc(Nc2c(N[C@@H](c3ccc(F)c(F)n3)C3(C)CCCC3)c(=O)c2=O)c1O [compound 024, (R)-4-((2-(((5,6-difluoropyridin-2-yl)(1-methylcyclopentyl)methyl)amino)-3,4-dioxocyclobut-1-en-1-yl)amino)-3-hydroxy-N,N-dimethylpicolinamide]
8 | 8.19 | – | CN(C)C(=O)c1nccc(Nc2c(N[C@@H](c3nccc(F)c3F)C3(C)CCCC3)c(=O)c2=O)c1O [compound 021, (R)-4-((2-(((3,4-difluoropyridin-2-yl)(1-methylcyclopentyl)methyl)amino)-3,4-dioxocyclobut-1-en-1-yl)amino)-3-hydroxy-N,N-dimethylpicolinamide]
9 | 6.79 | – | CN(C)C(=O)c1nccc(Nc2c(N[C@@H](c3ncccc3C(F)F)C3(C)CCCC3)c(=O)c2=O)c1O [compound 015, (R)-4-((2-(((3-(difluoromethyl)pyridin-2-yl)(1-methylcyclopentyl)methyl)amino)-3,4-dioxocyclobut-1-en-1-yl)amino)-3-hydroxy-N,N-dimethylpicolinamide]
10 | 6.58 | – | Cc1cccnc1C(Nc1c(Nc2ccnc(C(=O)N(C)C)c2O)c(=O)c1=O)C1(C)CCC2CC21 (centres unmarked) [compound 123, 3-hydroxy-N,N-dimethyl-4-((2-(((2-methylbicyclo[3.1.0]hexan-2-yl)(3-methylpyridin-2-yl)methyl)amino)-3,4-dioxocyclobut-1-en-1-yl)amino)picolinamide]
11 | 7.27 | – | CN(C)C(=O)c1nccc(Nc2c(N[C@@H](C#CC3CCC3)[C@@]3(C)CC(F)(F)CO3)c(=O)c2=O)c1O (single isomer, unassigned) [110B]
12 | 6.95 | – | CC(C)[C@H](Nc1c(Nc2ccnc(C(=O)N(C)C)c2O)c(=O)c1=O)C1(C)CCCC1 [compound 038, (S)-3-hydroxy-N,N-dimethyl-4-((2-((2-methyl-1-(1-methylcyclopentyl)propyl)amino)-3,4-dioxocyclobut-1-en-1-yl)amino)picolinamide]

From patent EP4703354A1, “COMPOUND AS CCR6 ANTAGONIST, AND PHARMACEUTICAL COMPOSITION AND USE THEREOF” (Wuhan Createrna Science and Technology Co.,Ltd., priority 2023, dated 2024)
